Source: US20110092462A1, “USE OF HIGH-DOSE OXAZAPHOSPHORINE DRUGS FOR TREATING IMMUNE DISORDERS” (The Johns Hopkins University, priority 2005, published 2011)
Like-named read-outs stand apart in the source and are kept apart here.

Assays:
[1] = tested on: patients with severe refractory autoimmune disorders
[2] = tested on: HLA-specific antibodies in SAA patients
[3] = tested on: patients with moderate to severe systemic lupus erythematosus (SLE)
[4] = tested on: patients with myasthenia gravis; conditions: 7 patients refractory to conventional immunosuppressive therapy
[5] = tested on: patient with paraneoplastic pemphigus
[6] = tested on: patients with aggressive MS; conditions: eight patients
Experimental: Open-label trial of patients with aggressive MS were given an up-front regimen of 50 mg/kg/d for four consecutive days. Enrolled patients had aggressive MS as defined by 2 or more total gadolinium enhancing lesions on each of two pretreatment MRI scans; at least one clinical exacerbation in the last year despite being on conventional MS therapy; and sustained increase of >1.0 on the EDSS in the preceding year.
All patients developed transient severe neutropenia, an expected consequence, followed by immune reconstitution in 10-17 days.

[7] = tested on: patients with refractory autoimmune hemolytic anemia
Text: The median hemoglobin at the time of treatment was 6.7 (range; 5-10) g/dl and 8 of the 9 patients were dependent on erythrocyte transfusions.

[8] = tested on: patient with pemphigus vulgaris
SAA patients [9] = conditions: for mortality within 6 months after treatment / patients achieving remission: 38 newly diagnosed patients
Text: Response was defined as ANC >1000/d1 and transfusion independence without growth factor support for >3 months. Relapse was defined as no longer meeting criteria for response. Development of paroxysmal nocturnal hemoglobinuria was monitored by flow cytometry.
The median age of the newly diagnosed patients was 40 (range 2-68) years.

[10] = tested on: previously untreated SAA patients
SAA patients [11] = conditions: 10 SAA patients
[12] = after the last dose of cyclophosphamide
[13] = 50 mg/kg/d for four consecutive days

Experimental for patients with HAA: Serology/PCR for HAV, HBV, HCV, EBV, and CMV were negative. All patients met criteria for very severe aplastic anemia pretreatment: bone marrow cellularity <25%, ANC <200 μL, platelet count <20,000/μL, absolute reticulocyte count <60,000/μL. Infection prophylaxis consisted of trimethoprim/sulfamethoxazole, G-CSF, and fluconazole.

With O=P1(N(CCCl)CCCl)NCCCO1 (centres unmarked) [high-dose cyclophosphamide, cyclophosphamide] the “median time to a neutrophil count of 500 per μL” value [1, 12] was 17 days, the “median time to platelet transfusion independence” value [1, 12] was 16 days and the complete remission ([1]; eight patients) was “five”. The marked clinical improvement ([1]; eight patients) was “Seven patients”, the partial remission ([1]; eight patients) was 2 and the “duration of remission after treatment without further immune suppression” value (patients with HAA; 4 patients with hematopoietic responses) was “up to 6 years”. The “autoimmune hepatitis (AIH) status” value (patients with HAA; Patient 2) was “remains in remission”, the hematologic response (patients with HAA; Patient 5, proceeded to unrelated BMT after 5 months) was “no hematopoietic response” and the hematopoietic recovery (patients with HAA; five patients, 50 mg/kg/day IV×4 days plus mesna) was “Four patients”. For the same compound, the “durable remissions in hepatitis-associated aplastic anemia” value (patients with HAA; follow-up 1-6 years) was 4 of 5, the “median time to ANC >500/μL” value (patients with HAA; range 44-369) was 51 days and the “median time to transfusion independence for platelets” value (patients with HAA; range 48-679) was 160 days. The “median time to transfusion independence for erythrocytes” value (patients with HAA; range 57-679) was 109 days, the “death from treatment failure” value (patients with HAA; series of 5 patients) was “one death” and the “marked reduction in anti-HLA antibody titer” value ([2]; after treatment) was “All four responders”. The “complete remission of the SAA” value ([2]; five patients with HLA-specific antibodies) was “four of these five”, the “anti-HLA antibody completely eradicated” value ([2]; of four responders) was “three” and the “deaths or fungal infections” value ([3]; 14 patients) was “no deaths or fungal infections”. The durable complete responses ([3]; 14 patients) was 5, the “median time to a neutrophil count of 500 μl” value ([3]; after the last dose, range 11 to 22 days, 14 patients) was 14 days and the “improvement in Physicians Global Assessment, mean difference” value ([3]; p<0.0001) was 1.3. For the same compound, the “improvement in prednisone dosage, mean difference” value ([3]; p=0.01) was 12.8 mg, the “improvement in systemic lupus erythematosus disease activity index, mean difference” value ([3]; p=0.042) was 3.5 and the “median day to last platelet transfusion” value ([3]; range 0 to 23) was 16 days. The “median transfusions of packed red blood cells required” value ([3]; range 2 to 5) was 2 transfusions, the “markedly improved, and returned to full activity” value [4] was “All of these patients” and the “pathogenic autoantibodies specific for the disease” value ([5]; after treatment) was “undetectable”. The remission ([5]; in vivo) was “durable complete remissions”, the “need for blood products” value ([5]; one patient) was “did not require blood products” and the “recovery to a neutrophil count of greater than 500 per μL” value ([5]; one patient) was ≤ 15 days. For the same compound, the brain atrophy [6] was “slowed in several patients”, the “clinical exacerbation following treatment” value [6] was “No patient” and the “improvement in the MSFC following treatment” value [6] was “most patients”. For the same compound, the “reduction in EDSS following treatment” value [6] was “most patients”, the “reduction or elimination of new and enhancing lesions on the MRI” value [6] was “All patients” and the “time to immune reconstitution after neutropenia” value [6, 13] was 10 to 17 days. For the same compound, the transient severe neutropenia [6, 13] was “All patients”, the “unexpected grade 3 or 4 adverse event” value [6, 13] was “no patients” and the “complete remission (normal untransfused hemoglobin for age and sex)” value ([7]; 9 patients) was 6 patients. The “median time to a neutrophil count of 500 per μL” value ([7]; 9 patients) was 16 days, the “median time to platelet transfusion independence” value ([7]; 9 patients) was 15 days and the “partial remission (hemoglobin >10.0 g/dl without support of transfusions)” value ([7]; 9 patients) was 3 patients. The “responded and became transfusion independent” value ([7]; 9 patients) was “All patients”, the “patients able to discontinue steroids” value ([7]; in vivo) was 7 of the 9 and the relapses ([7]; median follow-up of 15 (range 4-29) months) was “no relapses”. The “pathogenic autoantibodies specific for the disease” value ([8]; after treatment) was “undetectable”, the remission ([8]; in vivo) was “durable complete remissions” and the “began to recover neutrophils” value ([8]; one patient) was ≤ 9 days. For the same compound, the “need for red cell transfusions” value ([8]; one patient) was “did not require red cell transfusions”, the platelet transfusions received ([8]; one patient) was 2 and the PNH clone (SAA patients [9]; 12 patients with a PNH population) was “regressing in all 12 patients”. For the same compound, the durable remission (SAA patients [9]; 12 patients with a PNH population 0.5-40% of granulocytes, p=0.039) was “all 12”, the patients in remission (SAA patients [9]; 17 patients who failed immunosuppressive therapy) was “nine” and the “additional patient died from bacterial sepsis” value (SAA patients [9]; 18 months after treatment) was 1 patient. The “mortality within 6 months after treatment” value (SAA patients [9]) was 10.5%, the patients achieving remission (SAA patients [9]; 95% CI 58-85%) was 74% and the “mortality within 6 months after treatment” value (SAA patients [9]; all with vSAA) was 4 patients. The patients achieving remission (SAA patients [9]; most complete) was 28 patients, the patients in remission (SAA patients [9]; SAA (not very severe) subgroup of 23) was 20 patients and the “patients surviving in remission” value (SAA patients [9]; eight patients with a severe infection at beginning of treatment) was 5 patients. The “median time to ANC of 500” value (SAA patients [9]; newly diagnosed patients) was 50 days, the “median time to last platelet transfusion” value (SAA patients [9]; newly diagnosed patients) was 99 days and the “median time to last red cell transfusion” value (SAA patients [9]; newly diagnosed patients) was 181 days. For the same compound, the patients relapsed (SAA patients [9]; newly diagnosed series) was “Two patients”, the “progression to PNH or MDS” value (SAA patients [9]; newly diagnosed series) was “No patient” and the actuarial survival (SAA patients [9]; newly diagnosed, 95% CI 72-95%) was 86%. For the same compound, the patients surviving (SAA patients [9]; newly diagnosed, median follow-up 41 (range 6-111) months) was 33/38, the patients alive (SAA patients [9]; patients who failed immunosuppressive therapy) was “Ten of the 17” and the patients in remission (SAA patients [9]; vSAA subgroup of 15) was 10 patients. The “median time to a neutrophil count of 500 μL” value ([10]; 19 patients) was 49 days, the “probability of achieving treatment-free remission” value ([10]; 19 patients, 95% CI 51-91%) was 73% and the probability of survival ([10]; at 24 months, 19 patients, 95% CI 59-95%) was 84%. For the same compound, the “relapse or secondary clonal disorders” value ([10]; responding patients) was “No responding patients” and the “complete remission (normocellular bone marrow, hemoglobin >13.0 g/dl, neutrophil count >[…]10^9/L, platelet count greater than 125×10^9/L)” value (SAA patients [11]) was “seven of ten”.
